Measured values published in patent publication US8476408B2, “Unacylated ghrelin and analogs as therapeutic agents for vascular remodeling in diabetic patients and treatment of cardiovascular disease” (Alize Pharma SAS, priority 2008, dated 2013).
Where no end group is shown, it is not given here.

Legend:
CAC [1] = assay: CAC cell-cycle progression (S phase, FACS); type: cell-based, human; conditions: cultured CAC, still evident after 7 days; FIG. 1A
Method: (§1) Peripheral-blood mononuclear cells (PB-MNC) isolated by Fycoll Histopaque 1077 (Sigma) were resuspended in 20% FBS 199 Medium and plated on fibronectin-coated dishes (Biocoat, Becton Dickinson Labware) as described by Hill et al. (Ref. 19). Human UAG studies were performed on CAC recovered from normal donors and diabetic patients. The purity of sorted cells was assessed by FACS analysis (Ref. 20). For experiments, the isolated CAC were cultured under 5% CO2 at 37° C. for 4 days on 20 μg/ml fibronectin-coated dishes in EGM-2 medium containing 10% FBS, hydrocortisone, human Fibroblast Growth Factor, Vascular Endothelial Growth Factor, Insulin Growth Factor 1, ascorbic acid, human Epidermal Growth Factor, gentamicin and amphotericin-B (Cambrex, Walkersville, Md., USA) alone or in combination with 1 μM UAG and 1.2 mg/ml AGE. In selected experiments, isolated CAC were cultured in EBM-2 medium (Cambrex, Walkersville, Md., USA) supplemented with 10 ng/ml of IL-3. […]
(§2) Flow Cytometry—To analyze CAC cell-cycle progression, cells recovered from diabetic, healthy subjects, NOD/SCID, ob/ob and wt mice, were cultured in EBM-2 supplemented with IL-3 (10 ng/ml), FACS analysis was performed as previously described (Ref. 20). Cell surface molecules were evaluated by flow cytometry as previously described (Ref. 24). Frequency of marker-positive cells is expressed as mean±standard deviation (SD).

CAC [2] = assay: CAC senescence (acidic β-gal activity), cultured CAC; type: cell-based, human; conditions: FIG. 2A
Method: Peripheral-blood mononuclear cells (PB-MNC) isolated by Fycoll Histopaque 1077 (Sigma) were resuspended in 20% FBS 199 Medium and plated on fibronectin-coated dishes (Biocoat, Becton Dickinson Labware) as described by Hill et al. (Ref. 19). Human UAG studies were performed on CAC recovered from normal donors and diabetic patients. The purity of sorted cells was assessed by FACS analysis (Ref. 20). For experiments, the isolated CAC were cultured under 5% CO2 at 37° C. for 4 days on 20 μg/ml fibronectin-coated dishes in EGM-2 medium containing 10% FBS, hydrocortisone, human Fibroblast Growth Factor, Vascular Endothelial Growth Factor, Insulin Growth Factor 1, ascorbic acid, human Epidermal Growth Factor, gentamicin and amphotericin-B (Cambrex, Walkersville, Md., USA) alone or in combination with 1 μM UAG and 1.2 mg/ml AGE. In selected experiments, isolated CAC were cultured in EBM-2 medium (Cambrex, Walkersville, Md., USA) supplemented with 10 ng/ml of IL-3. FACS was used to analyze their phenotype (anti-CD45, anti-CD31, anti-CD105, anti-CD14 antibodies were used) (Ref. 22).
CAC Senescence—Senescence was evaluated by acidic β-gal activity on CAC recovered from normal subjects cultured in EGM2 medium for 4 days with UAG or AGE+UAG and saline- or UAG-treated diabetic patients (Ref. 22). […] SA-β-gal-positive cells were counted manually by 3 independent investigators.

CAC [3] = assay: Senescence of CAC recovered from type 2 diabetic patients treated with UAG; parameters: species or system human; conditions: 12 hours of treatment in vivo, FIG. 2D
Method: (§3) All the subjects underwent the following testing session: • UAG (3.0 μg/kg/h iv. as infusion for 12 h from 0 to 12 hours); • isotonic saline (infusion from 0 to 12 hours).
(§4) All tests were performed starting at 08.30-09.00 a.m. after overnight fasting, 30 minutes after an indwelling catheter had been placed into a forearm vein by slow infusion of isotonic saline. Blood samples were taken at 0 h, 6 h and 12 h.
CAC Senescence—Senescence was evaluated by acidic β-gal activity on CAC recovered from normal subjects cultured in EGM2 medium for 4 days with UAG or AGE+UAG and saline- or UAG-treated diabetic patients (Ref. 22). Briefly, CAC were washed in phosphate-buffered saline, fixed for 3 min at room temperature in 2% paraformaldehyde, washed, and incubated for24 h at 37° C. with fresh SA-β-gal stain solution: 1 mg/ml 5-bromo-4-chloro-3-indolyl β-D-galactopyranoside (X-gal), 5 mM/liter potassium ferrocyanide, 5 mM/liter ferricyanide, 150 mM/liter NaCl, 2 mM/liter MgCl2, 0.01% sodium deoxycholate, and 0.02% Nonidet P-40. SA-β-gal-positive cells were counted manually by 3 independent investigators.

CAC [4] = assay: CAC mobilization assay in healthy subjects and diabetic patients; type: in vivo, human; conditions: diabetic patients compared to normal subjects, 6 hours treatment; FIG. 3B
Method: as §3, §4
Mobilization assay—CAC recovered from healthy subjects and diabetic patients, treated with UAG or saline for 6 h and 12 h, were evaluated. Total number of MNC was counted by 3 independent investigators. The percentage of CAC was calculated by comparing CAC obtained from diabetic patients and healthy donors, treated for 6 h and 12 h with UAG, AG or saline, to CAC recovered at time 0.

CAC [5] = assay: Expansion (S phase) of CAC recovered from treated subjects, cultured with IL-3; type: in vivo, human; conditions: cells from treated diabetic patients cultured with IL-3; FIG. 3C
Method: as §1, §2

CAC [6] = assay: CAC mobilization assay in diabetic and control mice; type: in vivo; conditions: FIG. 4B
Method: Diabetic and control mice—Mice were divided in four groups. The plasma glucose and insulin determination for each group are reported. Sixteen 6 weeks old ob/ob mice (blood glucose, 600±45 mg/dL, insulin, 5.5±0.9 ng/ml); sixteen C56BL6/J wild type mice (blood glucose, 150±18.2 mg/dL, insulin, 1±0.05 ng/ml); ten 7 weeks old NOD/SCID mice (blood glucose, 164±12.9 mg/dL, insulin 1.2±0.12 ng/ml); ten 17 weeks old NOD/SCID mice (blood glucose, 536±36.3 mg/dL, insulin 4.85±0.74 ng/ml). Animal procedures conformed to the Guide for Care and Use of […] (National Institutes of Health publication no. 93-23, revised 1985).
Isolation and Culture of CAC from C57BU6J, C57BL/6J ob/ob mice and NOD/SCID mice—6 weeks old C57BL/6J (wt) and ob/ob mice, 7 and 17 weeks old NOD/SCID mice were purchased from Charles River Lab (Lecco, Italy). Animals were anesthetized by intraperitoneal injection with Avertin (100 mg/50ml ip). Blood samples were drawn from left ventricular, as described by Hoff (Ref. 27). Peripheral blood MNC were isolated by Ficoll density-gradient centrifugation. […]
Mobilization assay—Mice were treated for 12 hours with UAG or saline. CAC recovered and purified as above described, were put in culture and counted by three independent investigators. The technical ratio of CAC was calculated by comparing the numbers of CAC/μL of blood drawn from left ventricular.

GHSR-1a = GHSR-1a (Homo sapiens, UniProt Q92847); conditions: cited from earlier work
cardiomyocytes = conditions: Ref. 8; cited from earlier work
human arteries = conditions: Ref. 35; cited from earlier work

GHSR-1a, sequence (Q92847 whole entry): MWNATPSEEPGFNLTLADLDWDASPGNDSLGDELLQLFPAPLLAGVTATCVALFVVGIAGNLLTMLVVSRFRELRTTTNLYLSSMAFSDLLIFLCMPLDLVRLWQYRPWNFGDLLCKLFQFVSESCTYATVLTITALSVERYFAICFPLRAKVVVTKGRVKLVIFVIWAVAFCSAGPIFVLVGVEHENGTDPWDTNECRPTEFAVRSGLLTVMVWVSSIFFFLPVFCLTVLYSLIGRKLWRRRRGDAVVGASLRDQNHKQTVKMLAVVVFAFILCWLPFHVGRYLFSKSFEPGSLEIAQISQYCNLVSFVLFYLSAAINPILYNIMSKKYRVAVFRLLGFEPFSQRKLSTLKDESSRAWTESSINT

## 1-NH2Gly-Ser-Ser-Phe-Leu-Ser-Pro-Glu-His-Gln-Arg-Val-Gln-Gln-Arg-Lys-Glu-Ser-Lys-Lys-Pro-Pro-Ala-Lys-Leu-Gln-Pro-Arg-28 (GSSFLSPEHQRVQQRKESKKPPAKLQPR; ends and bridges not checked; listed as Homo sapiens) [UAG]
CAC [1]
  percentage of cells in S phase: significant increase in the percentage of cells in S phase
CAC [2]; CAC cultured with UAG alone
  number of senescent cells (SA-β-gal activity): reduce the number of senescent cells
CAC [2]; UAG added to AGE-cultured CAC
  number of SA-β-gal positive cells: significant reduction in the number of SA-β-gal positive cells
CAC [3]
  number of senescent cells: reduced the number of senescent cells
CAC [4]
  number of recovered CAC: strong increase in the number of recovered cells
CAC [5]
  cell expansion of recovered cells (S phase): underwent cell expansion
CAC [6]; diabetic NOD/SCID mice
  percentage of recovered cells: increase the percentage of recovered cells
CAC [6]; ob/ob mice
  number of recovered cells relative to untreated wild type mice: fully restores the number of CAC to normal physiological levels
GHSR-1a
  binding to GHSR-1a: fails to bind GHSR-1a
cardiomyocytes
  experimentally-induced cell death: inhibit experimentally-induced cell death
Human arteries
  vasodilator action: vasodilator actions
